{
  "source": "patent US20070071815A1",
  "about": "(priority 2004, published 2007)",
  "origin": "cited, not measured here",
  "data": [
    {"smiles": "CN(CC(=O)O)C(=N)N", "note": "[creatine, N-(aminoiminomethyl)-N-methylglycine]", "values": [
      {"measurement": "half-life of creatine in blood plasma", "value": "1 to 1.5", "unit": "h"}
    ]}
  ]
}
